Structures can show the parent of a compound that is named as a salt. Where two headings read alike, the source gives them in different places.
Assays:
Assay type in all cases: cell-based
[1] = test system: Kl. pneumoniae; assay: In vitro antibacterial activity, Mueller-Hinton agar serial dilution (Table 1); conditions: Klebsiella pneumoniae, 4 strains, serial dilution method, read-out: Geometric Mean of MIC
Description: (§1) In vitro Activity Using Mueller-Hinton Agar
(§2) By the Serial Dilution Method

[2] = test system: S. pyogenes; assay: as above; conditions: Streptococcus pyogenes, read-out: Geometric Mean of MIC
Description: as §1, §2

[3] = test system: E. coli; assay: as above; conditions: Escherichia coli, 7 strains, serial dilution method, read-out: Geometric Mean of MIC
Description: as §1, §2

[4] = test system: Proteus; assay: as above; conditions: read-out: Geometric Mean of MIC
Description: as §1, §2

[5] = test system: N. meningitidis; assay: as above; conditions: Neisseria meningitidis, 5 strains, serial dilution method, read-out: Geometric Mean of MIC
Description: as §1, §2

[6] = test system: Shig.(3), Serr.(1) Enterab.(1), Sal.(2) B. -B. (1); assay: as above; conditions: pooled Shig.(3), serial dilution method, read-out: Geometric Mean of MIC
Description: as §1, §2

[7] = test system: H. influenzae; assay: as above; conditions: Haemophilus influenzae, 7 strains, serial dilution method, read-out: Geometric Mean of MIC
Description: as §1, §2

[8] = test system: N. gonorrhoeae; assay: as above; conditions: Neisseria gonorrhoeae, 5 strains, serial dilution method, read-out: Geometric Mean of MIC
Description: as §1, §2

[9] = test system: S. viridans; assay: as above; conditions: Streptococcus viridans, 5 strains, serial dilution method, read-out: Geometric Mean of MIC
Description: as §1, §2

[10] = test system: S. aureus; assay: as above; conditions: Staphylococcus aureus, 3 strains, serial dilution method, read-out: Geometric Mean of MIC
Description: as §1, §2

[11] = test system: D. pneumoniae; assay: as above; conditions: Streptococcus pneumoniae, 5 strains, serial dilution method, read-out: Geometric Mean of MIC
Description: as §1, §2

[12] = test system: E. coli; assay: MIC on Mueller-Hinton agar (Table 2); conditions: Escherichia coli, 6 strains, read-out: Geometric Means of MIC's
Description: (§3) Geometric Means of MIC's Against 3 Strains
(§4) of S. aureus and 27 Strains of Gram-negative Bacteria
(§5) (mcg./ml., Mueller-Hinton Agar)

[13] = test system: E. coli, Cephalosporin-R; assay: MIC on Mueller-Hinton agar (Table 2); conditions: Escherichia coli, 1 strain, read-out: Geometric Means of MIC's
Description: as §3, §4, §5

[14] = test system: S. marcescens; assay: MIC on Mueller-Hinton agar (Table 2); conditions: Serratia marcescens, 1 strain, read-out: Geometric Means of MIC's
Description: as §3, §4, §5

[15] = test system: S. aureus, Penicillin-R; assay: MIC on Mueller-Hinton agar (Table 2); conditions: Staphylococcus aureus, 2 strains, read-out: Geometric Means of MIC's
Description: as §3, §4, §5

[16] = test system: Indole (+) Proteus, Cephalosporin-R; assay: MIC on Mueller-Hinton agar (Table 2); conditions: 2 strains, read-out: Geometric Means of MIC's
Description: as §3, §4, §5

[17] = test system: P. aeruginosa; assay: MIC on Mueller-Hinton agar (Table 2); conditions: Pseudomonas aeruginosa, 2 strains, read-out: Geometric Means of MIC's
Description: as §3, §4, §5

[18] = test system: E. cloacae; assay: MIC on Mueller-Hinton agar (Table 2); conditions: Enterobacter cloacae, 1 strain, read-out: Geometric Means of MIC's
Description: as §3, §4, §5

[19] = test system: Indole (-) Proteus; assay: MIC on Mueller-Hinton agar (Table 2); conditions: 2 strains, read-out: Geometric Means of MIC's
Description: as §3, §4, §5

[20] = test system: K. pneumoniae; assay: MIC on Mueller-Hinton agar (Table 2); conditions: Klebsiella pneumoniae, 4 strains, read-out: Geometric Means of MIC's
Description: as §3, §4, §5

[21] = test system: Indole (+) Proteus; assay: MIC on Mueller-Hinton agar (Table 2); conditions: 3 strains, read-out: Geometric Means of MIC's
Description: as §3, §4, §5

[22] = test system: Shigella, Salmonella; assay: MIC on Mueller-Hinton agar (Table 2); conditions: 5 strains, read-out: Geometric Means of MIC's
Description: as §3, §4, §5

[23] = test system: bacteria; assay: In vitro antibacterial potency; conditions: compared with corresponding compound lacking 2-methyl group (BB-S515)
[24] = test system: S. marcescens; assay: MIC against 18 strains of S. marcescens (Table 3); conditions: Serratia marcescens, read-out: Geometric Means of MIC's
Description: | Geometric Means of MIC's Against 18 Strains |of S. marcescens

**Q.** Which results are given for `CO/N=C(\C(=O)N[C@@H]1C(=O)N2C(C(=O)O)=C(CSc3ccc4n[nH]c(=O)n4n3)CS[C@H]12)c1ccco1` [BB-S515, 7-[(2Z)-2-methoxyimino(fur-2-yl)acetamido]-3-(2,3-dihydro-s-triazolo[4,3-b]pyridazin-3-on-6-ylthiomethyl)-3-cephem-4-carboxylic acid sodium salt, reference compound]?
**A.** MIC [1]: 3.1 µg/mL; MIC [2]: 0.032 µg/mL; MIC [3]: 2.33 µg/mL; MIC [4]: 1.11 µg/mL; MIC [5]: 5.45 µg/mL; MIC [6]: 5.26 µg/mL; MIC [7]: 2.11 µg/mL; MIC [8]: 2.07 µg/mL; MIC [9]: 0.59 µg/mL; MIC [10]: 2.48 µg/mL; MIC [11]: 0.1 µg/mL

**Q.** `CO/N=C(\C(=O)N[C@@H]1C(=O)N2C(C(=O)O)=C(CSc3ccc4nn(C)c(=O)n4n3)CS[C@H]12)c1ccco1` [BB-S510, 7-[(2Z)-2-methoxyimino(fur-2-yl)acetamido]-3-(2-methyl-2,3-dihydro-s-triazolo[4,3-b]pyridazin-3-on-6-ylthiomethyl)-3-cephem-4-carboxylic acid sodium salt] was tested. Which MIC [1] did it give?
**A.** 6.3 µg/mL

**Q.** What about the MIC ([2]; 5 strains, Mueller-Hinton agar, serial dilution method) of the same compound?
**A.** 0.0125 µg/mL

**Q.** What about the MIC [3] of the same compound?
**A.** 2.11 µg/mL

**Q.** What about the MIC ([4]; 6 strains, Mueller-Hinton agar, serial dilution method) of the same compound?
**A.** 1.39 µg/mL

**Q.** And the MIC [5]?
**A.** 1.03 µg/mL

**Q.** What about the MIC [6] of the same compound?
**A.** 6.26 µg/mL

**Q.** And the MIC [7]?
**A.** 0.35 µg/mL

**Q.** What about the MIC [8] of the same compound?
**A.** 0.26 µg/mL

**Q.** What about the MIC [9] of the same compound?
**A.** 0.13 µg/mL

**Q.** And the MIC [10]?
**A.** 0.62 µg/mL

**Q.** What about the MIC [11] of the same compound?
**A.** 0.021 µg/mL

**Q.** And the MIC [12]?
**A.** 0.1 µg/mL

**Q.** And the MIC [13]?
**A.** 3.1 µg/mL

**Q.** What about the MIC [14] of the same compound?
**A.** 6.3 µg/mL

**Q.** And the MIC [15]?
**A.** 0.1 µg/mL

**Q.** And the MIC [16]?
**A.** 6.3 µg/mL

**Q.** What about the MIC [17] of the same compound?
**A.** > 100 µg/mL

**Q.** What about the MIC [18] of the same compound?
**A.** 3.1 µg/mL

**Q.** What about the MIC [19] of the same compound?
**A.** 1.1 µg/mL

**Q.** What about the MIC [20] of the same compound?
**A.** 2.6 µg/mL

**Q.** And the MIC [21]?
**A.** 0.2 µg/mL

**Q.** And the MIC [22]?
**A.** 0.5 µg/mL

**Q.** And the “in vitro antibacterial potency” value [23]?
**A.** considerably superior

**Q.** What about the MIC [24] of the same compound?
**A.** 7.9 µg/mL

From patent US4104469A, “7-(Syn-α-alkoxy-iminofuryl)acetamido-3-(2-methyl-2,3-dihydro-s-t riazolo[4,3-b]pyridazin-3-on-6-ylthiomethyl)-3-cephem-4-carboxylic acids” (Bristol-Myers Company, priority 1977, dated 1978)
